The record followed here is patent publication US20180140694A1, “DOSAGE REGIMEN FOR HIV VACCINE” (priority 2015, published 2018).

Series [1] is described as follows: Safety and tolerability evaluation in REDUC trial (adverse events). The series is classed as in vivo, human. The source says: The primary endpoint of Part A was safety and tolerability; evaluation as measured by adverse events (AE), adverse reactions (AR), serious adverse events (SAE), serious adverse reactions (SAR), serious unexpected adverse reactions (SUSAR).
The primary endpoint of Part B was firstly, safety and tolerability evaluation as measured by adverse events (AE), adverse reactions (AR), serious adverse events (SAE), serious adverse reactions (SAR), serious unexpected adverse reactions (SUSAR) and dose-limiting toxicity.

Series [2] has as its system latent HIV-1 reservoir in CD4+ T cells. The experiment in a line: Total HIV-1 DNA per 10^6 CD4+ T cells by droplet digital PCR (REDUC). The class given is in vivo. The following applies: REDUC Part A, romidepsin infusions without preceding vaccination. The source says: Total HIV-1 DNA (copies per 10^6 CD4+ T cells): Total HIV DNA quantifies integrated and non-integrated DNA as well as latent and defective virus. There is a strong correlation between total HIV DNA and integrated HIV DNA in patients on cART and therefore cell-associated HIV DNA is likely to be a good surrogate marker of the total number of latently infected cells [Koelsch 2008].
For HIV-1 DNA quantifications, CD4 T cells were isolated using a CD4+ T Cell Isolation Kit Miltenyi biotec, cat no 130-096-533) on LS columns (Miltenyi biotec, cat no 130-042-401). After CD4 T isolation, cells were resuspended in lysis buffer and digested as previously described [Chomont, 2009 Nat Med, 15(8): 893-900]. Cell lysates were used directly for HIV-1 DNA quantifications using the QX100™ Droplet Digital™ PCR system (Bio-Rad) to determine the absolute levels of total HIV-1 DNA per 106 CD4+ T cells [Strain et al 2013 PLOS One].

Series [3] has as its system HIV-1 transcription in CD4+ T cells. Briefly: Cell associated unspliced HIV-1 RNA in CD4+ T cells by droplet digital PCR (REDUC). The class given is in vivo. The following applies: REDUC Part A. How it is done:
Unspliced HIV-1 RNA (copies per 10^6 CD4+ T cells): HIV transcription was measured as copies of cell-associated unspliced HIV-1 RNA/106 CD4+ T cells using digital droplet PCR.
HIV transcription was measured as copies of cell-associated unspliced HIV-1 RNA/106 CD4+ T cells using digital droplet PCR. CD4+ T-cells were isolated from PBMCs using Miltenyi Biotec negative bead separation kit (CD4 T cell isolation, #130-096-533) as described with LD separation columns, lysed (Lysis buffer from Qiagen DNA/RNA extraction kit), and stored ad −80° C. until extraction of RNA and DNA (Allprep isolation kit, Qiagen). Reverse transcription, amplification and quantitation of cell-associated unspliced HIV RNA from HIV patients was performed as follows. In summary, HIV unspliced RNA was detected on the BioRad QX100 droplet digital platform using a defined primer/probe set and related to total cell input by quantitation of the IPO8 (Importin 8) and TBP (Tata Binding Protein) gene transcription. […] After cycling droplets were subsequently read automatically by the QX100 droplet reader (BioRad) and the data was analyzed with the QuantaSoft™ analysis software (BioRad). On average, the six HIV replicates generated 80,000-98,000 droplets to be analyzed per time point.

For series [4], the system named is Plasma HIV-1 RNA. The following applies: REDUC Part A. How it is done: Plasma HIV RNA, quantitative viral load: Measured by Roche VL (routine clinical assay).
Plasma HIV RNA, quantitative viral load, was measured by Cobas® TaqMan® HIV-1 Test, v2.0 (Roche) according the manufacturer's instruction (routine clinical assay). The lower limit of quantification for this assay is 20 copies HIV-1 RNA/mL, but it provides a qualitative assessment below this.

The test system of series [5] is Histone H3 acetylation in lymphocytes. The experiment in a line: Histone H3 acetylation in lymphocytes by flow cytometry (REDUC). Conditions: REDUC Part A, following each romidepsin administration, 5 mg/m^2. The series is classed as in vivo, human. How it is done:
Histone H3 acetylation: Measured in lymphocytes using flow cytometry with intracellular cytokine stain on fresh isolated PBMCs.
Histone H3 acetylation was measured in lymphocytes using flow cytometry with intracellular cytokine staining on fresh isolated PBMCs. Freshly isolated PBMC's were fixated, permeabilised and stained with acetylation-specific antibodies, providing the possibility to evaluate epigenetic modifications on Histones (Rigby L, Muscat A, Ashley D, Algar E. Epigenetics 2012; 7(8):875-882). Briefly, PBMCs (1×10^6) were resuspended in 3 ml ice-cold PBS/1% FBS and centrifuged, then vortexed to dissolve pellet and fixative added, 100 μl 2% PFA (ice-cold), vortexed briefly and incubated on ice for 15 min. Cells were then washed in 4 ml PBS, resuspended in 200 μl PBS and stored at 4° C. until staining. Samples were washed with 3 ml FACS buffer and vortexed to dissolve cell pellet prior to adding 100 μl 0.2% Triton X-100, vortexed briefly and incubated for 10 min. at room temperature (RT). Samples were then washed with FACS buffer, 600 μl Block (PBS/10% FBS) was added, sample vortexed to resuspend cell pellet and incubated for 20 min at RT. […] Finally, samples were washed with FACS buffer and resuspended in 80 μl PBS and analyzed by FACS (50 000 events, anti-acetyl histone H3 Median Fluorescence Intensity, MFI, calculated by subtracting background MFI from isotype control).

For series [6], the system named is Plasma HIV-1 RNA. Briefly: Plasma HIV-1 RNA by transcription mediated amplification (NAT screen, PROCLEIX ULTRIO Plus). The class given is in vivo. Conditions: REDUC Part A. The procedure:
Plasma HIV-1 RNA detection by NAT screen: Measured by a transcription mediated amplification (TMA)-based methodology, usually referred to as a nucleic acid test (NAT)-screen (PROCLEIX ULTRIO Plus, Genprobe).
Plasma HIV RNA, quantitative viral load, was measured by Cobas® TaqMan® HIV-1 Test, v2.0 (Roche) according the manufacturer's instruction (routine clinical assay). The lower limit of quantification for this assay is 20 copies HIV-1 RNA/mL, but it provides a qualitative assessment below this. Plasma HIV-1 RNA was also measured by a transcription mediated amplification (TMA)-based methodology, usually referred to as a nucleic acid test (NAT)-screen (PROCLEIX ULTRIO Plus, Genprobe), according to manufacturer's instructions.

Setting [7] is: REDUC Part A, romidepsin 5 mg/m^2, 6 patients.

Consider `C/C=C1\NC(=O)[C@H]2CSSCC/C=C/[C@H](CC(=O)N[C@H](C(C)C)C(=O)N2)OC(=O)[C@H](C(C)C)NC1=O` [romidepsin, (1S,4S,7Z,10S,16E,21R)-7-ethylidene-4,21-bis(1-methylethyl)-2-oxa-12,13-dithia-5,8,20,23-tetraazabicyclo[8.7.6] tricos-16-ene-3,6,9,19,22-pentone], for which, in series [1] (setting [7]), the adverse event grade entry was “most adverse events (AEs) were of grade 1” and the serious adverse events entry is given as “No serious adverse events were observed”. In addition, the “adverse events considered related to the agent” value in series [1] (REDUC Part B, of 141 in total) turned out to be 57 adverse events. Moreover, the “size of the latent reservoir” value in series [2] was “not affected”. Besides, the “cell-associated un-spliced HIV RNA as a result of romidepsin infusion” value in series [3] is “significantly increased”. Further, the “cell-associated un-spliced HIV-1 RNA, fold range from baseline” value in series [3] (after third infusion) is on record as 2.4-5.0 fold. Besides, in the series with Plasma HIV-1 RNA [4], the “extracellular HIV RNA as a result of romidepsin infusion” value is on record as “significantly increased”. For the same molecule, in the series on Plasma HIV-1 RNA [4] (multiple post-infusion time-points), the “patients with plasma HIV-1 RNA increased to readily quantifiable levels” value was 5 of 6 patients. In addition, in the series with Plasma HIV-1 RNA [4] (range following the second infusion, <20 copies/mL at baseline), the “plasma HIV-1 RNA” value is recorded as 46-103 copies/mL. Also, the “Lymphocyte histone H3 acetylation, maximum fold range relative to baseline” value in series [5] is recorded as 3.7-7.7 fold. Moreover, in the series on Plasma HIV-1 RNA [6], the “Plasma HIV-1 RNA detection by transcription-mediated amplification assay, post-infusion versus baseline” value is “detected more frequently”.
